Entries after “also recorded” stand apart in the source; their conditions may differ.
Key:
[1] = test system: dentate granular cells of Tau368 mice; assay: Sparse labeling: dendritic spine density and mossy fiber puncta area; format: in vivo, mouse
Procedure: (§1) For 2-month male C57BL/6 mice, 10 mM FITC-labeled or unlabeled-DEPTAC were directly injected through the tail vein or lateral ventricle for the evaluation of BBB-penetrability. For 9-month 3×Tg AD mice or Tau368 (20–30 g body weight), unlabeled-DEPTAC (5 mM, 1 μL for each time) was delivered for once into the lateral ventricle through direct stereotaxic injection, or repeatedly administrated through guiding cannulas (RWD, Shenzhen, China) implanted into the lateral ventricle once every 3 days for a consecutive month to test its dephosphorylation efficiency. Mice were restricted in a custom designed device and stayed awake during drug administration, and sacrificed at 24 h post the single or last DEPTAC administration.
(§2) A total volume of 0.3 μL mixture of AAV-CaMKIIα-Cre (5.21E+07) and AAV-EF1α-DIO-mCherry (3.24E+12) (1:1 vol/vol) was stereotaxically injected into the dDG of Tau368 mice 1 month following the beginning of dox or normal drinking water administration. Dox was stopped 1-month post AAVs injection, and DEPTAC were delivered through lateral ventricle for a consecutive month. Behavioral tests were performed after the DEPTAC administration, and mice were killed after behavioral tests. Hippocampal sections of 60 μm were obtained, and fluorescent images were taken by a two-photon laser-scanning confocal microscope (LSM710, Zeiss). The dendrite complexity of granular cells in the dorsal dentate gyrus was evaluated by Sholl analysis using Simple Neurite Tracer plugin and ImageJ (Fiji) software. Dendrite spine density and the averaged area of mossy fiber punctas were evaluated using ImageJ by an experimenter blinded from mice groupings. It should be noted that the fluorescence-labeled mossy fibers assembled densely in the CA3 subset, the main target area of mossy fiber axon terminals, making it difficult to accurately measure the puncta areas (data not shown). Therefore, we chose the hilus of DG subset for the measurement, which we believe should be also valid to indicate the axon plasticity of DG granular cells.

neurons = assay: Neuron penetrability in vivo; design: species or system mouse; details: Supplementary Fig. S1a; 10 mM FITC-labeled or unlabeled-DEPTAC, C57BL/6 mice
Procedure: as §1

Tau368 mice [2] = assay: Object-place recognition test; format: in vivo, mouse
Procedure: Mice were repeatedly handled during DEPTAC administration before behavioral tests. For object-place recognition in the […], mice were placed in a box (50 × 50 × 50 cm) marked with a visual cue on the wall, and two identical objects (plastic toys) were placed at the two different corners. Each mouse was allowed to freely explore for 5 min, and then removed from the box for 2 min, during which the box and the objects were cleaned with 75% ethanol. Pseudorandomly, one of the two objects (object B) was moved to a new corner while the other object (object A) remained unmoved. In the test phase, mice were allowed to freely explore in the box for another 5 min. Videos were recorded and analyzed online using an ANY-maze video tracking system (Stoelting). The time mice stayed around each object was counted as exploring; and the preference ratio was calculated as the exploring time (B − A) / (B + A).

Tau368 mice [3] = assay: Morris water maze test; format: in vivo, mouse
Excerpt: Morris water maze tests began 3 days after the novel-object recognition tests. Briefly, mice were trained to find a hidden platform submerged under water in a Morris water maze (1.2 m in diameter) for five consecutive days with three trials per day. Visual cues outside the pool remained constant. In each trial, mice were pseudorandomly placed, facing the pool wall, in one of the three quadrants without platform and allowed to freely seek the hidden platform within 60 s. […] The traveling path of each mouse was recorded and analyzed online using an MWZ-100 video-tracking system (Techman, China). At day 6, each mouse was tested for 60 s in the water maze with the hidden platform removed. Videos were recorded using recorded and time of mice stayed in, and number of entries into the target quadrant previously place the platform were analyzed using MWZ-100 and ANY-maze video tracking system (Stoelting).

[4] = test system: human tau N-terminal 1–368 fragment (hTau-N368); assay: Hippocampal phosphorylated and total tau in dox-treated Tau368 mice; format: in vivo, mouse; details: 5 mM, i.c.v.
[5] = test system: brain-blood barrier (BBB); assay: Brain-blood barrier penetration after tail vein delivery; format: in vivo; details: delivered through mouse tail vein; 10 mM; 2-month male C57BL/6 mice
Procedure: as §1

[6] = test system: dentate granular cells of Tau368 mice; assay: Sholl analysis of dendrite complexity; format: in vivo, mouse
Procedure: as §1, §2

PP2A-Bα (PPP2R1A) = assay: Fluorescence polarization competing assay, PP2A-Bα; format: binding, human; details: 2.5 μM PP2A-Bα, 0.1 μM FITC-labeled DEPTAC; 37 °C, 30 min
Procedure: Purified human tau and PP2A-Bα (PPP2R1A) were obtained from AtaGenix (Wuhan, China), and concentrated using ultrafiltration tubes (Beyotime). In basic binding assays, tau or PP2A-Bα was aliquoted into serial dilutions with a buffer containing 20 mM Tris-HCl, 150 mM NaCl, and 0.5 mM 1,4-Dithiothreitol (pH 7.4), and incubated with 0.1 μM FITC-labeled DEPTAC, FITC-labeled control peptide and FITC (9:1 vol/vol), respectively, in a black 384-well plates (Corning) under 37 °C for 30 min. In competition binding assays, a mixture of 2.5 μM tau or PP2A-Bα and 0.1 μM FITC-labeled DEPTAC were incubated with increasing amounts of unlabeled-DEPTAC under 37 °C for 30 min. Fluorescence intensity was measured by a Biotek Synergy 2 microplate reader with the wavelengths of 480 nm (60) (Ex)/560 nm (40) (Em). The polarization measurements were corrected for background contributions to the measured intensity by subtracting the parallel and perpendicular intensity readings by the vehicle-only wells from the intensity readings for each data point. Fluorescence polarization (P) was calculated by the formula P = (I║ − I┴) / (I║ + I┴), where I║ was the intensity of emitted light polarized parallel to the excitation light, and I┴ was the intensity of emitted light polarized perpendicular to the excitation light.

[7] = Tau368 mice without dox, n = 3 mice
[8] = dox-treated Tau368 mice, DEPTAC 1 month after stopping dox, *p < 0.05, n = 5 mice
[9] = dox-treated Tau368 mice, day 6, platform removed, *p < 0.05

“(1) YQQYQDATADEQG, originates from the porcine β-tubulin 422–434 for recognizing and binding tau proteins.[5],[6] (2) GSGS, a linker for increasing the flexibility of the peptide.[15] (3) KKVAVVRTPPKSP, for recruiting PP2A-Bα,[16] and (4) RRRRRRRR [DEPTAC, DEPhosphorylation TArgeting Chimera; 38 amino acid residues, C185H314N72O56]” was tested. Which “averaged mossy fiber puncta area, without dox” value [1, 7] did it give?
The value was “only limited effects”.

What about the “dendritic spine density, without dox” value [1, 7] of the same substance?
The value was “only limited effects”.

What about the “averaged area of mossy fiber puncta” value [1, 8] of the same substance?
The value was “increased; also recorded: enlarged”.

And the “mushroom-like dendritic spine density” value [1, 8]?
The value was “significantly increased”.

What about the “total dendritic spine density” value [1, 8] of the same substance?
Its value is “significantly increased”.

What about the “neuron penetrability in vivo” value (neurons) of the same substance?
Its value is “high neuron penetrability”.

What about the “object-place recognition in control mice” value (Tau368 mice [2]; Tau368 mice treated with NW) of the same substance?
Its value is “only limitedly affected”.

And the object-place recognition impairment (Tau368 mice [2]; dox-treated Tau368 mice, 1-month DEPTAC after stopping dox, *p < 0.05, n = 10–15 mice)?
Its object-place recognition impairment is “remarkably ameliorated; also recorded: rescued”.

And the “spatial learning and memory in control mice” value (Tau368 mice [3]; control mice without human tau accumulation (NW))?
Its value is “only limitedly affected; also recorded: did not statistically change”.

What about the “spatial learning deficit in Morris water maze” value (Tau368 mice [3]; dox-treated Tau368 mice, **p < 0.01, *p < 0.05) of the same substance?
Its value is “rescued; also recorded: significantly alleviated”.

What about the “spatial memory impairment in Morris water maze” value (Tau368 mice [3]; dox-treated Tau368 mice, day 6, platform removed) of the same substance?
Its value is “rescued; also recorded: attenuated”.

What about the “number of entries into the target quadrant” value (Tau368 mice [3]; [9]) of the same substance?
The value was “increased”.

And the “time staying in the target quadrant” value (Tau368 mice [3]; [9])?
The value was “increased”.

And the “time post injection of tau reduction” value [4]?
Its value is 12 to 72 h.

What about the hippocampal total tau ([4]; for a consecutive month / for once, 12–72 h post injection, n = 3–4) of the same substance?
The hippocampal total tau was “effective in reducing; also recorded: reduced phosphorylated and total tau prominently”.

What about the “brain-blood barrier (BBB) penetrating efficiency” value [5] of the same substance?
Its value is “limited”.

And the “dendrite complexity, NW-treated” value ([6]; NW-treated Tau368 mice, n = 3~5 mice, 12~22 neurons)?
Its value is “did not statistically change; also recorded: no statistically significant change”.

And the “neurite differentiation in control mice” value ([6]; control mice without human tau accumulation)?
Its value is “did not statistically change”.

And the “dendrite complexity, dox-treated” value ([6]; dox-treated Tau368 mice, n = 3~5 mice, 12~22 neurons)?
The value was “did not statistically change; also recorded: no statistically significant change”.

What about the “reversal of FITC-DEPTAC/PP2A-Bα polarization by increased amount of unlabeled-DEPTAC” value (PP2A-Bα (PPP2R1A)) of the same substance?
The value was “both were reversed”.
